Measurements as given in patent US4526989A, “1,4-Bis (substituted-amino)-5,8-dihydroxy-anthraquinones and leuco bases thereof” (priority 1979, dated 1985).
Read-outs that look alike come from different tables or passages of the source.

Test system: lymphocytic leukemia P388
Assay: Lymphocytic leukemia P388 test (intraperitoneal administration)
Format: in vivo, DBA/2 mice
Experimental: The animals used are DBA/2 mice all of one sex, weighing a minimum of 17 g. and all within a 3 gram weight range. There are 5 or 6 animals per test group. The tumor transplant is by intraperitoneal injection of 0.1 ml. of dilute ascitic fluid containing 10^6 cells of lymphocytic leukemia P388. The test compounds are administered intraperitoneally on days one, 5 and 9 (relative to tumor inoculation) at various doses. The animals are weighed and survivors are recorded on a regular basis for 30 days. The median survival time and the ratio of survival time for treated (T)/control (C) animals are calculated.

[1] = 6.25 mg./kg. i.p., days 1, 5 and 9
[2] = 12.5 mg./kg. i.p., days 1, 5 and 9
[3] = 25 mg./kg. i.p., days 1, 5 and 9
[4] = 50 mg./kg. i.p., days 1, 5 and 9
[5] = 100 mg./kg. i.p., days 1, 5 and 9
[6] = 200 mg./kg. i.p., days 1, 5 and 9
[7] = Mus musculus, P388, ip, 6.25 mg./kg. i.p., days 1, 5 and 9, efficacy ≥125%, read-out: T/C × 100
[8] = Mus musculus, P388, ip, 12.5 mg./kg. i.p., days 1, 5 and 9, efficacy ≥125%, read-out: T/C × 100
[9] = Mus musculus, P388, ip, 25 mg./kg. i.p., days 1, 5 and 9, efficacy ≥125%, read-out: T/C × 100
[10] = Mus musculus, P388, ip, 50 mg./kg. i.p., days 1, 5 and 9, efficacy ≥125%, read-out: T/C × 100
[11] = Mus musculus, P388, ip, 100 mg./kg. i.p., days 1, 5 and 9, efficacy ≥125%, read-out: T/C × 100
[12] = Mus musculus, P388, ip, 200 mg./kg. i.p., days 1, 5 and 9, efficacy ≥125%, read-out: T/C × 100

Compound | Median Survival Time [1] | Median Survival Time [2] | Median Survival Time [3] | Median Survival Time [4] | Median Survival Time [5] | Median Survival Time [6] | response vs control in vivo at 6.25 mg/kg [7] | response vs control in vivo at 12.5 mg/kg [8] | response vs control in vivo at 25 mg/kg [9] | response vs control in vivo at 50 mg/kg [10] | response vs control in vivo at 100 mg/kg [11] | response vs control in vivo at 200 mg/kg [12] | further results
CC(O)CNCCNC1=C2C(=O)c3c(O)ccc(O)c3C(=O)C2=C(NCCNCC(C)O)CC1 (centres unmarked) [Leuco-1,4-bis[2-(2-hydroxy-1-propylamino)ethylamino]-5,8-dihydroxyanthraquinone] | 20.0 days | 21.5 days | 20.5 days | 24.0 days | 26.5 days | 9.0 days | 182% | 195% | 186% | 218% | 241% | 82% | –
O=C1C2=C(NCCNCCCO)CCC(NCCNCCCO)=C2C(=O)c2c(O)ccc(O)c21 [Leuco-1,4-bis[2-(3-hydroxy-1-propylamino)ethylamino]-5,8-dihydroxyanthraquinone] | 16.5 days | 19.5 days | 22.0 days | 34.0 days | 38.0 days | 14.0 days | 150% | 177% | – | 309% | 345% | 127% | Median Survival Time (0.78 mg./kg. i.p., days 1, 5 and 9): 18.0 days; Median Survival Time (1.56 mg./kg. i.p., days 1, 5 and 9): 19.5 days; Median Survival Time (3.1 mg./kg. i.p., days 1, 5 and 9): 18.5 days; response vs control in vivo at 25 mg/kg (Mus musculus, P388, ip, read-out: T/C × 100): 200%; response vs control in vivo at 0.78 mg/kg (Mus musculus, P388, ip, 0.78 mg./kg. i.p., days 1, 5 and 9, efficacy ≥125%, read-out: T/C × 100): 164%; response vs control in vivo at 1.56 mg/kg (Mus musculus, P388, ip, 1.56 mg./kg. i.p., days 1, 5 and 9, efficacy ≥125%, read-out: T/C × 100): 177%; response vs control in vivo at 3.1 mg/kg (Mus musculus, P388, ip, 3.1 mg./kg. i.p., days 1, 5 and 9, efficacy ≥125%, read-out: T/C × 100): 168%
O=C1C2=C(NCCN(CCO)CCO)CCC(NCCN(CCO)CCO)=C2C(=O)c2c(O)ccc(O)c21 [Leuco-1,4-bis[2-[di(β-hydroxyethyl)amino]ethylamino]-5,8-dihydroxyanthraquinone] | – | 13.5 days | 15.0 days | 16.0 days | 17.0 days | 19.0 days | – | 135% | 150% | 160% | 170% | 190% | Median Survival Time (6.2 mg./kg. i.p., days 1, 5 and 9): 12.0 days; response vs control in vivo at 6.2 mg/kg (Mus musculus, P388, ip, 6.2 mg./kg. i.p., days 1, 5 and 9, efficacy ≥125%, read-out: T/C × 100): 120%
O=C1C2=C(NCCCNCCO)CCC(NCCCNCCO)=C2C(=O)c2c(O)ccc(O)c21 [Leuco-1,4-bis[3-(2-hydroxyethylamino)-1-propylamino]-5,8-dihydroxyanthraquinone] | 18.0 days | 19.0 days | 18.5 days | 25.0 days | 27.5 days | 33.5 days | 164% | 173% | 168% | 227% | 250% | 305% | Median Survival Time (3.12 mg./kg. i.p., days 1, 5 and 9): 15.0 days; response vs control in vivo at 3.12 mg/kg (Mus musculus, P388, ip, 3.12 mg./kg. i.p., days 1, 5 and 9, efficacy ≥125%, read-out: T/C × 100): 136%
